Source: US11306098B2, “Substituted pyrrolo[1,2-a]pyrazines and pyrrolo[1,2-a][1,4]diazepines as TREX1 inhibitors” (VENENUM BIODESIGN, LLC, priority 2019, dated 2022)

Key:
[1] = test system: interferon stimulated genes (ISGs) in THP1 Dual cells; experiment: RT-qPCR assay of interferon stimulated gene expression; format: cell-based, human; details: substance alone, 24 hours, normalized to GAPDH, unstimulated control = 1
Description: Example D is a cell based assay that measures the increase in the expression of interferon stimulated genes (ISG) by RT-qPCR that are induced by TREX1 inhibitors when THP1 Dual™ cells are transfected with double-stranded DNA. The double stranded DNA used to transfect cells was VACV-70 (Invivogen), a 70 base pair oligonucleotide containing viral DNA motifs (Unterholzner L. et al., 2010. IFI16 is an innate immune sensor for intracellular DNA. Nat Immunol. 11(11):997-1004). Activation of cGAS-STING pathway in THP1 Dual™ cells increases the expression of ISGs.
The RT-qPCR assay was used to assess the ability of TREX1 inhibitors to enhance the expression of interferon stimulated genes (ISGs) in cells transfected with double-stranded DNA. The double stranded DNA used to transfect cells was VACV-70 (Invivogen), a 70 base pair oligonucleotide containing viral DNA motifs (Unterholzner L. et al., 2010. IFI16 is an innate immune sensor for intracellular DNA. Nat Immunol. 11(11):997-1004). Human THP1 Dual™ cells (Invivogen), were treated with test compound in the presence or absence of 1,200 ng/mL VACV-70, or with VACV-70 alone, for 24 hours. Cells were harvested by centrifugation and washed with phosphate buffer saline. Total RNA was isolated using Qiagen RNeasy mini kit. Genomic DNA was degraded using Thermo Scientific DNase 1 kit. Total RNA was quantified using a Nanodrop spectrophotometer. Using equal amounts of RNA, cDNA was synthesized using Invitrogen Superstrand III First Strand synthesis kit. Target and reference gene expression levels were determined by RT-qPCR using TaqMan gene expression assays and a Stratagene Mx3005P QPCR system (all reagents were from TaqMan, Applied Biosystems). Data were analyzed by the Comparative CT method. GAPDH was used for normalization. Target genes that were analyzed included interferon stimulated genes (INF-β, CXCL10, IFIT1, IFIT2, IFIT3, IFI44, and IFI44L).

[2] = test system: THP1 Dual cells (ISRE Lucia reporter, cGAS-STING pathway); experiment: THP1 monocyte assay, ISRE Lucia luciferase reporter; format: cell-based, human; details: 48 hours, luciferase signal versus control wells without compound
Description: Example C is a cell-based assay for TREX1 inhibitors using THP1 Dual™ cells (Invivogen), a human monocyte cell line that has stable integration of an Interferon Stimulated Response Element (ISRE) Lucia reporter gene. The Lucia gene encodes a secreted luciferase reporter protein, under the control of an ISG54 minimal promoter in conjunction with five IFN-stimulated response elements. Activation of the cGAS-STING pathway in THP1 Dual™ cells leads to enhanced luciferase secretion and increased luminescence.
A cell-based assay was established using THP1 Dual™ cells (Invivogen), a human monocyte cell line that has stable integration of an Interferon Stimulated Response Element (ISRE) Lucia reporter gene. The Lucia gene encodes a secreted luciferase reporter protein, under the control of an ISG54 minimal promoter in conjunction with five IFN-stimulated response elements. Activation of the cGAS-STING pathway in these cells leads to enhanced luciferase secretion. The assay was conducted in standard 384-well white tissue culture plates. Cells (25,000 in 25 μL RPMI 1640 containing 10% Heat-Inactivated FBS, 1× Glutagro, 10 mM HEPES, 1 mM sodium pyruvate, 1× Pen/Strep, 100 μg/mL Normocin, 100 μg/mL Zeocin, 10 μg/mL Blasticidin) were added to the plate followed by 25 μL of compound in the same media+0.2% DMSO. The assay was incubated for 48 hours at 37° C. in 5% CO2. An aliquot of 5 μl was removed to combine with 12.5 μL of the luciferase detection reagent, QUANTI-Luc™ Gold (Invivogen) in a white 384-well plate. The luminescent signal was then read using an EnVision plate reader (Perkin Elmer). The fold activation was calculated by dividing the signal in wells containing test compound by the signal in the control wells without compound (see Table 7).

[3] = biological target: cleaved human TREX1 (Homo sapiens (Human), UniProt Q9NSU2); experiment: TREX1 Thermal Shift Binding Assay (human); details: assay buffer, 100 μM compound, 5 μM TREX1; read-out: Thermal shift cleaved human TREX1, (ΔTm ° C.) Assay buffer
Method: Example B is a protein thermal shift assay used to assess the binding of TREX1 inhibitors to TREX1 protein. In this assay, TREX1 protein unfolding with increasing temperature was measured in the presence and absence of TREX1 inhibitors by following the increase in fluorescence of a thiol-reactive dye (e.g BODIPY FL-cystine) as it reacts with exposed TREX1 cysteine residues. The assay was conducted using human (SEQ ID NO: 1), or murine (SEQ ID NO: 2) TREX1 protein constructs.
The thermal shift assays used recombinant protein corresponding to human (SEQ ID NO: 1) and murine (SEQ ID NO: 2) TREX1. The protein encoding plasmid contained a N-terminal MBP (maltose binding protein) tag followed by the TREX1 coding sequence within the pMAL-c5E vector. The plasmid was transfected into a BL21 (DE3) E. coli expression strain. Protein was purified from the bacterial lysate using an Amylose resin column. The MBP tag was cleaved from the purified protein using recombinant enterokinase (EMD Millipore #69066-3). The cleaved TREX1 protein was further purified on a Q-Sepharose column followed by a heparin column.
Binding of compounds to both human and murine TREX1 were measured by protein thermal shift assays. (Huynh K, Partch C L. Current Protocols in Protein Science: Analysis of protein stability and ligand interactions by thermal shift assay. Current protocols in protein science/editorial board, John E Coligan. [et al]. 2015; 79:28.9.1-28.9.14. doi:10.1002/0471140864.ps2809s79.). Thermal shift assays were conducted in sealed 96-well PCR plates containing 5 μM TREX1 protein, 100 μM compound, and 2 μM BODIPY FL-cystine (Sigma) in either 20 μL assay buffer (20 mM Tris, 7.5, 5 mM MgCl2, 0.002% Triton X-100) or 20 μL phosphate buffered saline (PBS). Using a RT-qPCR machine (Mx3005P, Stratagene) changes in fluorescence (excitation at 492 nm and emission at 516 nm) were monitored as temperature was increased from 25° C. to 96° C. at a rate of 1° C. every 2 minutes. Tm values were calculated from the first derivative plot of fluorescence intensity versus temperature. The results shown in Table 6 indicate the examples bind to human TREX1 and murine TREX1. ND indicates assay was not done.

cleaved human TREX1, sequence (Q9NSU2 1-242): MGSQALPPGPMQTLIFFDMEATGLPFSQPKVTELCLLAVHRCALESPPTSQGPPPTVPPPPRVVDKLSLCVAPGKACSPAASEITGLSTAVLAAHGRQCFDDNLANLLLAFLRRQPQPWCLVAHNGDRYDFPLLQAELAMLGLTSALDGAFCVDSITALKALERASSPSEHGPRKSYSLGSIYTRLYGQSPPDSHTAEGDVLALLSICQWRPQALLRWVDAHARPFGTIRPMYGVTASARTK

N[C@@H]1C[C@H]2C(=O)N([C@H](CCC(=O)O)C(=O)NCc3ccc(Cl)c(Cl)c3)CCC(CCc3ccccc3)N2C1 (stereo partly drawn) [Example 14B] showed a CXCL10 expression [1] of 2, an IFI44L expression [1] of 65 and an IFI44 expression [1] of 54. The IFIT1 expression [1] was 19, the IFIT2 expression [1] was 44 and the IFIT3 expression [1] was 25. The IFN-β expression [1] was 7, the “Fold activation @ 10 μM” value [2] was 12 and the ΔTm at 100 µM [3] was > 8 °C.
